Measured values from patent publication US20160281125A1, “ANTIMICROBIAL COMPOUND SUSCEPTIBILITY TEST” (priority 2013, published 2016).

How the values were obtained:
[1] = tested on: class D beta-lactamase Enterobacteriaceae; assay: Lysis test on simulated blood cultures vs CLSI disk diffusion (Example 9); assay type: cell-based; conditions: the one Class D strain incorrect with ertapenem; cut-off ≦30% resistant
Method: In this example, isolates tested include strains with and without carbapenemases. From fresh blood agar plates, three colonies per strain were used to inoculate blood culture media containing human blood and grown overnight at 37° C. with shaking, producing a simulated blood culture. Cultures were then diluted 1:10 into broth medium and grown for an additional hour at 37° C. with shaking. For each strain, four 250 μL aliquots were added into four separate 2 mL Eppendorf microcentrifuge tubes. […] Tubes were vortexed to resuspend the pellet completely, and then OD600 measurement was taken and the percent change, or percent lysis, between the control and antibiotic tubes was calculated (percent change=[control OD−antibiotic OD]/control OD). Results were then compared to the susceptibility of the strains, determined using the Clinical and Laboratory Standards Institute (CLSI) methods for disk diffusion. […]
Of note, if a strain was determined to be intermediate to a drug by the disk diffusion method using CLSI breakpoints, it was expected to correlate to the resistant answer by the method of the invention. […] With this consideration, it is preferable that intermediate strains are conservatively scored as resistant to prevent possible treatment failure. […]

[2] = tested on: E. coli strain 35218; assay: Carbapenem test, Triton fixation buffer and BacUni QuickFISH staining (Example 4); assay type: cell-based; conditions: FIG. 9; E. coli 35218; 10 μg/ml
Method: (§1) An isolated colony from an overnight Tryptocase Soy Agar (TSA) plate for each bacteria was suspended in 1 ml Tryptocase Soy Broth (TSB) in a 5 ml BD polystyrene round bottom tube. TSB cultures were incubated at 37° C. for 1.5 hours shaking. […] of each stationary-phase culture were transferred to 2 ml Eppendorf microcentrifuge tubes containing 500 μl of Normal Saline (BD); or 500 μl Normal Saline with imipenem, ertapenem, or meropenem at a concentration of […], […], or 40 μg/ml (26.67 μg/ml final concentration). Tubes were inverted then incubated at 37° C. stagnant for thirty minutes. Then 10 μl from each tube was pipetted onto plain glass slide on a 55° C. heat block, followed by 25 μl fixation buffer (0.5% T×100, 100 mM Tris pH 9, 24% Ethanol, and 10 mM NaCl); slide is incubated until sample is dry. Ten μl of BacUni QuickFISH hybridization buffer was added to each slide followed by a 22×22 mm coverslip. The slide was then incubated at 55° C. for 15 minutes. The slides were viewed on a fluorescence microscope 60× oil immersion on Dual TxR/FITC. Images were taken with a 1 second exposure.
(§2) The control fixation in this experiment has all the same components, except no Triton X-100. This was done to assess whether the selective lysis step is required to resolve a difference between susceptible and resistant bacteria.

[3] = tested on: K. pneumoniae strain BAA2146 NDM+; assay: as above; assay type: cell-based; conditions: FIG. 11, 10 μg/ml
Method: as §1, §2

[4] = tested on: K. pneumoniae strain 13882; assay: as above; assay type: cell-based; conditions: FIG. 10; K. pneumoniae 13882; 10 μg/ml
Method: as §1, §2

[5] = tested on: K. pneumo BAA-1705 (KPC); assay: Selective lysis test, OD600, meropenem and cefotaxime (Example 2); assay type: cell-based, K. pneumoniae
Method: (§3) In this experiment the following strains were tested: strain K. pneumoniae 13882 (previously considered meropenem sensitive and cefotaxime sensitive); E. coli BAA-197 (ESBL) (which expresses an extended-spectrum (beta)-lactamase enzyme and was previously considered meropenem sensitive and cefotaxime resistant); K. pneumoniae BAA-1705 (KPC) (which expresses a carbapenemase enzyme and was previously considered meropenem resistant and cefotaxime resistant); and K. pneumoniae BAA-2146 (NDM1) (which expresses the metallo-beta-lactamase-1 enzyme and was previously considered meropenem resistant and cefotaxime resistant).
(§4) An isolated colony from an overnight Tryptocase Soy Agar (TSA) plate of each bacteria was suspended in 1 ml Tryptocase Soy Broth (TSB) in a 5 ml BD polystyrene round bottom tube. TSB cultures were incubated at 37° C. for 1.5 hours shaking. Three 250 μl aliquots of each stationary-phase culture were then transferred to three 2 ml Eppendorf microcentrifuge tubes. One tube contained 500 μl of Normal Saline (BD); the second tube contained 500 μl Normal Saline with meropenem at 10 μg/ml; and the third tube contained 500 μl Normal Saline with cefotaxime (abbreviated […]) at 10 μg/ml. Tubes were inverted then incubated at 37° C. stagnant for thirty minutes. Then […] of lysis buffer (0.5% SDS in PSB) was added to each tube and each tube was vortexed for 5 seconds. Post incubation, all tubes were spun at 10000 G for 5 minutes. Supernatant was decanted and the pellet resuspended in Normal Saline. Tubes were vortexed. OD600 was measured using Eppendorf uvettes in a spectrophotometer. The delta between the control and the meropenem normal saline, or the control and the cefotaxime normal saline was used to determine susceptibility.

[6] = tested on: K. pneumo BAA-2146 (NDM1); assay: as above; assay type: cell-based, K. pneumoniae
Method: as §3, §4

[7] = tested on: K. pneumo 13882; assay: as above; assay type: cell-based, K. pneumoniae
Method: as §3, §4

[8] = tested on: E. coli BAA-197 (ESBL); assay: as above; assay type: cell-based
Method: as §3, §4

Row | SMILES | lysis (percent change of OD600) [1] [%] | test result (susceptibility or resistance) by BacUni QuickFISH staining [2] | test result (susceptibility or resistance) by BacUni QuickFISH staining [3] | test result (susceptibility or resistance) by BacUni QuickFISH staining [4] | % diff ([5]; K. pneumo BAA-1705 (KPC), OD600 vs control) [%] | OD600 ([5]; K. pneumo BAA-1705 (KPC), antibiotic 10 μg/ml, 30 min, SDS lysis buffer + vortex, 1.5 h culture) | assay score (sensitive or resistant) ([5]; K. pneumoniae BAA-1705 (KPC)) | % diff ([6]; K. pneumo BAA-2146 (NDM1), OD600 vs control) [%] | OD600 ([6]; K. pneumo BAA-2146 (NDM1), antibiotic 10 μg/ml, 30 min, SDS lysis buffer + vortex, 1.5 h culture) | assay score (sensitive or resistant) ([6]; K. pneumoniae BAA-2146 (NDM1)) | % diff ([7]; K. pneumo 13882, OD600 vs control) [%] | OD600 ([7]; K. pneumo 13882, antibiotic 10 μg/ml, 30 min, SDS lysis buffer + vortex, 1.5 h culture) | assay score (sensitive or resistant) ([7]; K. pneumoniae 13882) | assay score (sensitive or resistant) [8] | % diff ([8]; OD600 vs control) [%] | OD600 ([8]; antibiotic 10 μg/ml, 30 min, SDS lysis buffer + vortex, 1.5 h culture)
1 | C[C@@H](O)[C@H]1C(=O)N2C(C(=O)O)=C(S[C@@H]3CN[C@H](C(=O)Nc4cccc(C(=O)O)c4)C3)[C@H](C)[C@H]12 [ertapenem] | 36 | detect susceptibility | detect resistance | detect susceptibility |  |  |  |  |  |  |  |  |  |  |  | 
2 | CO/N=C(\C(=O)N[C@@H]1C(=O)N2C(C(=O)O)=C(COC(C)=O)CS[C@H]12)c1csc(N)n1 [cefotaxime] |  |  |  |  | 34.1 | 0.334 | resistant | 6.7 | 0.28 | resistant | 69.8 | 0.11 | sensitive | resistant | 19.1 | 0.292
